From ChEMBL document CHEMBL1201862, “PubChem BioAssay data set” (2004)
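Growth conditions: 96-well plates. Treatment: test compound, 48 hours, 5 concentrations. Analysis: linear interpolation between bracketing concentrations; unreached endpoints set to highest concentration. GI50 is the concentration that inhibits growth by half.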 Calls of active or inactive are those of the source. Cut-off read from the data, not from the text of the source: active = GI50 up to about 1.1 µM and inactive = higher.

Legend:
Test in all cases: DTP human tumour cell line panel, 48 h
SK-MEL-28 = tested on: SK-MEL-28
NCI-H226 = tested on: NCI-H226
MDA-N = tested on: MDA-N
MDA-MB-435 = tested on: MDA-MB-435
A498 = tested on: A498
SF-268 = tested on: SF-268
LOX IMVI = tested on: LOX IMVI
NCI/ADR-RES = tested on: NCI/ADR-RES
DU-145 = tested on: DU-145
SW-620 = tested on: SW-620
MDA-MB-231 = tested on: MDA-MB-231
CAKI-1 = tested on: CAKI-1
SK-MEL-5 = tested on: SK-MEL-5
KM12 = tested on: KM12
786-0 = tested on: 786-0
SNB-75 = tested on: SNB-75
HCT-116 = tested on: HCT-116
HT-29 = tested on: HT-29
OVCAR-4 = tested on: OVCAR-4
K562 = tested on: K562
NCI-H522 = tested on: NCI-H522
COLO 205 = tested on: COLO 205
Hs-578T = tested on: Hs-578T
SN12C = tested on: SN12C
OVCAR-3 = tested on: OVCAR-3
M14 = tested on: M14
SK-MEL-2 = tested on: SK-MEL-2
T47D = tested on: T47D
NCI-H460 = tested on: NCI-H460
SR = tested on: SR
SK-OV-3 = tested on: SK-OV-3
SNB-19 = tested on: SNB-19
OVCAR-5 = tested on: OVCAR-5
U-251 = tested on: U-251
A549 = tested on: A549
EKVX = tested on: EKVX
SF-539 = tested on: SF-539
SF-295 = tested on: SF-295
MOLT-4 = tested on: MOLT-4
HOP-62 = tested on: HOP-62
CCRF-CEM = tested on: CCRF-CEM
Malme-3M = tested on: Malme-3M
RXF 393 = tested on: RXF 393
OVCAR-8 = tested on: OVCAR-8
ACHN = tested on: ACHN
MCF7 = tested on: MCF7
PC-3 = tested on: PC-3
HCC 2998 = tested on: HCC 2998
IGROV-1 = tested on: IGROV-1
HCT-15 = tested on: HCT-15
UACC-257 = tested on: UACC-257
UACC-62 = tested on: UACC-62
NCI-H23 = tested on: NCI-H23
HL-60 = tested on: HL-60
RPMI-8226 = tested on: RPMI-8226
UO-31 = tested on: UO-31
TK-10 = tested on: TK-10
HOP-92 = tested on: HOP-92

Measured: GI50

CSc1cc(Cl)c(C)cc1S(=O)(=O)NC(=O)NNc1ccc(C)cc1
inactive: SK-MEL-28 > 100 µM | NCI-H226 > 100 µM | MDA-N > 100 µM | MDA-MB-435 > 100 µM | A498 > 100 µM | SF-268 > 100 µM | LOX IMVI > 100 µM | NCI/ADR-RES 64.3 µM | DU-145 48.9 µM | SW-620 > 100 µM | MDA-MB-231 > 100 µM | CAKI-1 82 µM | SK-MEL-5 > 100 µM | KM12 78.3 µM | 786-0 > 100 µM | SNB-75 8.26 µM | HCT-116 > 100 µM | HT-29 > 100 µM | OVCAR-4 > 100 µM | K562 > 100 µM | NCI-H522 > 100 µM | COLO 205 > 100 µM | Hs-578T > 100 µM | SN12C > 100 µM | OVCAR-3 > 100 µM | M14 > 100 µM | SK-MEL-2 93.3 µM | T47D 61.9 µM | NCI-H460 > 100 µM | SR 40.2 µM | SK-OV-3 68.9 µM | SNB-19 > 100 µM | OVCAR-5 > 100 µM | U-251 > 100 µM | A549 > 100 µM | EKVX > 100 µM | SF-539 > 100 µM | SF-295 > 100 µM | MOLT-4 43 µM | HOP-62 > 100 µM | CCRF-CEM > 100 µM | Malme-3M > 100 µM | RXF 393 > 100 µM | OVCAR-8 > 100 µM | ACHN 30.7 µM | MCF7 > 100 µM | PC-3 43.5 µM | HCC 2998 22.2 µM | IGROV-1 > 100 µM
> 100 µM: HCT-15

CC/C=C/C(CC)C/C(C)=C\[C@]1(CC)C[C@H](CC)[C@H](CC(=O)O)OO1 (stereo not given in full)
inactive: NCI-H226 1.89 µM | MDA-N 1.36 µM | MDA-MB-435 1.46 µM | A498 1.53 µM | SF-268 1.39 µM | UACC-257 3.42 µM | UACC-62 1.66 µM | MDA-MB-231 1.76 µM | SK-MEL-5 1.27 µM | 786-0 1.31 µM | COLO 205 1.32 µM | Hs-578T 2.26 µM | SN12C 1.59 µM | OVCAR-3 1.15 µM | M14 1.64 µM | SK-MEL-2 1.74 µM | T47D 1.34 µM | SK-OV-3 1.9 µM | SNB-19 1.82 µM | OVCAR-5 1.29 µM | NCI-H23 1.61 µM | SF-539 1.51 µM | MCF7 1.77 µM
0.416 µM: HCT-15
active: LOX IMVI 0.0315 µM | NCI/ADR-RES 0.453 µM | DU-145 0.451 µM | SW-620 0.352 µM | CAKI-1 0.259 µM | KM12 0.0991 µM | HCT-116 0.41 µM | HT-29 0.499 µM | K562 0.355 µM | NCI-H522 0.178 µM | NCI-H460 0.171 µM | SR 0.114 µM | U-251 0.491 µM | A549 0.121 µM | SF-295 0.324 µM | MOLT-4 0.151 µM | HOP-62 0.885 µM | CCRF-CEM 0.105 µM | OVCAR-8 1.09 µM | ACHN 0.265 µM | PC-3 0.366 µM | HL-60 0.682 µM | RPMI-8226 < 0.01 µM | IGROV-1 0.0612 µM | UO-31 0.0157 µM

Oc1cnc2c(O)cccc2c1 [JINEOL]
33.5 µM: HCT-15
inactive: SK-MEL-28 76.6 µM | NCI-H226 24.2 µM | MDA-N 57.1 µM | MDA-MB-435 80.2 µM | A498 > 100 µM | SF-268 33.2 µM | UACC-257 56.6 µM | LOX IMVI 26.2 µM | NCI/ADR-RES 18.2 µM | DU-145 57.3 µM | SW-620 45.5 µM | UACC-62 32.7 µM | MDA-MB-231 52 µM | TK-10 53.1 µM | KM12 12.8 µM | 786-0 35.5 µM | SNB-75 20.7 µM | HCT-116 40.8 µM | HT-29 32.7 µM | K562 51.3 µM | NCI-H522 19.2 µM | Hs-578T > 100 µM | SN12C 37.5 µM | OVCAR-3 20.6 µM | M14 24.5 µM | SK-MEL-2 64.4 µM | HOP-92 41 µM | T47D 29 µM | NCI-H460 31.9 µM | SR 40.6 µM | SK-OV-3 32.6 µM | SNB-19 58.9 µM | OVCAR-5 24.9 µM | U-251 48.9 µM | A549 40.7 µM | EKVX 15.9 µM | SF-539 30.3 µM | SF-295 36.8 µM | MOLT-4 41.7 µM | HOP-62 26.7 µM | Malme-3M 34.8 µM | OVCAR-8 26.2 µM | ACHN 27.5 µM | MCF7 30.7 µM | PC-3 36.8 µM | HCC 2998 43.4 µM | HL-60 31.5 µM | RPMI-8226 38.1 µM | IGROV-1 20.3 µM | UO-31 30.8 µM
